# From PubChem BioAssay AID1963829 (Molecular Pharmacology Branch, DTP, NCI, 2024)
# Test system: 935938-334-R-J1-PDC complex spheroid viability
# Assay: Anticancer human tumor 935938-334-R-J1-PDC patient-derived small intestine adenocarcinoma cell line growth inhibition [POLQ]
# Conditions: for IC50: curve of first compound; for viability, T/C: stronger effect = lower value
# Outline: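 Three-cell-type spheroids modelling solid tumor plus stroma served as the readout system; POL inhibitors were tested individually and in combination, concentration ranges set by clinical Cmax where known.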
# [1] = second compound 0.0316 µM, first compound 0.0316 µM
# [2] = second compound 0.0316 µM, first compound 0.1 µM
# [3] = second compound 0.0316 µM, first compound 0.316 µM
# [4] = second compound 0.0316 µM, first compound 1 µM
# [5] = second compound 0.0316 µM, first compound 3.16 µM
# [6] = second compound 0.0316 µM, first compound 10 µM
# [7] = second compound 0.1 µM, first compound 0.0316 µM
# [8] = second compound 0.1 µM, first compound 0.1 µM
# [9] = second compound 0.1 µM, first compound 0.316 µM
# [10] = second compound 0.1 µM, first compound 1 µM
# [11] = second compound 0.1 µM, first compound 3.16 µM
# [12] = second compound 0.1 µM, first compound 10 µM
# [13] = second compound 0.316 µM, first compound 0.0316 µM
# [14] = second compound 0.316 µM, first compound 0.1 µM
# [15] = second compound 0.316 µM, first compound 0.316 µM
# [16] = second compound 0.316 µM, first compound 1 µM
# [17] = second compound 0.316 µM, first compound 3.16 µM
# [18] = second compound 0.316 µM, first compound 10 µM
# [19] = second compound 1 µM, first compound 0.0316 µM
# [20] = second compound 1 µM, first compound 0.1 µM
# [21] = second compound 1 µM, first compound 0.316 µM
# [22] = second compound 1 µM, first compound 1 µM
# [23] = second compound 1 µM, first compound 3.16 µM
# [24] = second compound 1 µM, first compound 10 µM
# [25] = second compound 3.16 µM, first compound 0.0316 µM
# [26] = second compound 3.16 µM, first compound 0.1 µM
# [27] = second compound 3.16 µM, first compound 0.316 µM
# [28] = second compound 3.16 µM, first compound 1 µM
# [29] = second compound 3.16 µM, first compound 3.16 µM
# [30] = second compound 3.16 µM, first compound 10 µM
# [31] = second compound 10 µM, first compound 0.0316 µM
# [32] = second compound 10 µM, first compound 0.1 µM
# [33] = second compound 10 µM, first compound 0.316 µM
# [34] = second compound 10 µM, first compound 1 µM
# [35] = second compound 10 µM, first compound 3.16 µM
# [36] = second compound 10 µM, first compound 10 µM
# 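Further: spheroids exposed to drugs for seven days before viability read.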
# 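Wherever viability, T/C is given: 100% = DMSO vehicle control wells.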
smiles,measurement,setting,value
Nc1ccn(C2OC(CO)C(O)C2(F)F)c(=O)n1 (stereo unspecified) + COC1C(OC(N)=O)C(O)C(Oc2ccc3c(O)c(NC(=O)c4ccc(O)c(CC=C(C)C)c4)c(=O)oc3c2C)OC1(C)C,IC50,second compound 0.0316 µM,< 0.0316 µM
same,IC50,second compound 0.1 µM,< 0.0316 µM
same,IC50,second compound 0.316 µM,< 0.0316 µM
same,IC50,second compound 1 µM,< 0.0316 µM
same,IC50,second compound 3.16 µM,< 0.0316 µM
same,IC50,second compound 10 µM,< 0.0316 µM
same,"viability, T/C",[1],25.5%
same,"viability, T/C",[2],22.1%
same,"viability, T/C",[3],18.8%
same,"viability, T/C",[4],15%
same,"viability, T/C",[5],14.9%
same,"viability, T/C",[6],14.1%
same,"viability, T/C",[7],30.7%
same,"viability, T/C",[8],18.8%
same,"viability, T/C",[9],17.8%
same,"viability, T/C",[10],16.9%
same,"viability, T/C",[11],16.9%
same,"viability, T/C",[12],14.5%
same,"viability, T/C",[13],32.2%
same,"viability, T/C",[14],22.6%
same,"viability, T/C",[15],17.7%
same,"viability, T/C",[16],17.7%
same,"viability, T/C",[17],16.3%
same,"viability, T/C",[18],14.6%
same,"viability, T/C",[19],28.5%
same,"viability, T/C",[20],23.4%
same,"viability, T/C",[21],20.2%
same,"viability, T/C",[22],13.6%
same,"viability, T/C",[23],18.1%
same,"viability, T/C",[24],16.5%
same,"viability, T/C",[25],26.1%
same,"viability, T/C",[26],25.7%
same,"viability, T/C",[27],21.7%
same,"viability, T/C",[28],16.4%
same,"viability, T/C",[29],16.7%
same,"viability, T/C",[30],14.9%
same,"viability, T/C",[31],28.8%
same,"viability, T/C",[32],23.6%
same,"viability, T/C",[33],18.6%
same,"viability, T/C",[34],14.4%
same,"viability, T/C",[35],16.8%
same,"viability, T/C",[36],17.9%
CCCS(=O)(=O)Nc1ccc(F)c(C(=O)c2c[nH]c3ncc(-c4ccc(Cl)cc4)cc23)c1F + Nc1ccc(C#CCN(C(=O)Cc2ncc(C(F)(F)F)cc2C(F)(F)F)c2ccc(F)cc2)nn1,IC50,second compound 0.0316 µM,9.23 µM
same,IC50,second compound 0.1 µM,9.61 µM
same,IC50,second compound 0.316 µM,> 10 µM
same,IC50,second compound 1 µM,> 10 µM
same,IC50,second compound 3.16 µM,9.37 µM
same,IC50,second compound 10 µM,9.98 µM
same,"viability, T/C",[1],114%
same,"viability, T/C",[2],112%
same,"viability, T/C",[3],117%
same,"viability, T/C",[4],135%
same,"viability, T/C",[5],113%
same,"viability, T/C",[6],45%
same,"viability, T/C",[7],126%
same,"viability, T/C",[8],138%
same,"viability, T/C",[9],109%
same,"viability, T/C",[10],140%
same,"viability, T/C",[11],131%
same,"viability, T/C",[12],47.3%
same,"viability, T/C",[13],118%
same,"viability, T/C",[14],121%
same,"viability, T/C",[15],90.9%
same,"viability, T/C",[16],165%
same,"viability, T/C",[17],120%
same,"viability, T/C",[18],50.3%
same,"viability, T/C",[19],103%
same,"viability, T/C",[20],97.4%
same,"viability, T/C",[21],95.1%
same,"viability, T/C",[22],112%
same,"viability, T/C",[23],129%
same,"viability, T/C",[24],63.2%
same,"viability, T/C",[25],110%
same,"viability, T/C",[26],121%
same,"viability, T/C",[27],140%
same,"viability, T/C",[28],158%
same,"viability, T/C",[29],121%
same,"viability, T/C",[30],45.6%
same,"viability, T/C",[31],104%
same,"viability, T/C",[32],125%
same,"viability, T/C",[33],145%
same,"viability, T/C",[34],174%
same,"viability, T/C",[35],151%
same,"viability, T/C",[36],50%
CCc1cc2c(N3CCc4c(cc(Cn5ccnc5)cc4-c4cn(C)nc4C(F)(F)F)C3=O)cc(C)nc2c(OC)n1 + COC1C(OC(N)=O)C(O)C(Oc2ccc3c(O)c(NC(=O)c4ccc(O)c(CC=C(C)C)c4)c(=O)oc3c2C)OC1(C)C,IC50,second compound 0.0316 µM,> 10 µM
same,IC50,second compound 0.1 µM,> 10 µM
same,IC50,second compound 0.316 µM,> 10 µM
same,IC50,second compound 1 µM,> 10 µM
same,IC50,second compound 3.16 µM,> 10 µM
same,IC50,second compound 10 µM,> 10 µM
same,"viability, T/C",[1],83.6%
same,"viability, T/C",[2],81.1%
same,"viability, T/C",[3],77.7%
same,"viability, T/C",[4],72.9%
same,"viability, T/C",[5],64.6%
same,"viability, T/C",[6],64.8%
same,"viability, T/C",[7],80.8%
same,"viability, T/C",[8],83.1%
same,"viability, T/C",[9],74.1%
same,"viability, T/C",[10],62.8%
same,"viability, T/C",[11],70.4%
same,"viability, T/C",[12],64%
same,"viability, T/C",[13],74.6%
same,"viability, T/C",[14],72.5%
same,"viability, T/C",[15],75.5%
same,"viability, T/C",[16],70.5%
same,"viability, T/C",[17],75.4%
same,"viability, T/C",[18],60%
same,"viability, T/C",[19],64.7%
same,"viability, T/C",[20],72%
same,"viability, T/C",[21],90.6%
same,"viability, T/C",[22],88.9%
same,"viability, T/C",[23],73.9%
same,"viability, T/C",[24],71.3%
same,"viability, T/C",[25],64.4%
same,"viability, T/C",[26],73.6%
same,"viability, T/C",[27],73%
same,"viability, T/C",[28],61.5%
same,"viability, T/C",[29],74.7%
same,"viability, T/C",[30],56.4%
same,"viability, T/C",[31],85.7%
same,"viability, T/C",[32],68.8%
same,"viability, T/C",[33],71.8%
same,"viability, T/C",[34],71.5%
same,"viability, T/C",[35],78.5%
same,"viability, T/C",[36],66.7%
